From US20150322083A1, “(THIENO[2,3-b][1,5]BENZOXAZEPIN-4-YL)PIPERAZIN-1-YL COMPOUNDS AS SELECTIVE 5-HT2A INVERSE AGONISTS” (Eli Lilly and Company, priority 2014, published 2015)
Counter-ions that a name gives are not always drawn.

Assays:
Dopamine Transporter = Dopamine Transporter (Homo sapiens, UniProt Q01959); test: Dopamine transporter binding
Protocol: (§1) Curves are evaluated using a 4-parameter logistic nonlinear equation to obtain the concentration of competitor causing 50% inhibition of radioligand binding (IC50). Equilibrium dissociation constants (Ki) are calculated according to the equation Ki=IC50/(1+L/Kd), where L equals the concentration of radioligand used in the experiment and Kd equals the equilibrium dissociation constant of the radioligand for the receptor, determined from standard saturation analysis or homologous competition experiments. Reported values for Ki, where n values are indicated, are shown as geometric mean±the standard error of the mean (SEM), with the number of replicate determinations indicated by n. Geometric means are calculated by the equation GeoMean=10̂(Average(log Ki 1+log Ki 2+ . . . log Ki n)/[…]).
(§2) Further, the compounds of the invention may be tested in binding assays and functional activity assays by well known methods for other physiologically important receptors such as, but not limited to, the hERG channel, other serotonin receptors (specifically 5-HT1B receptors, lack of agonist activity at 5-HT2B receptors, 5-HT2C, 5-HT5, 5-HT6, and 5-HT7 receptors), dopaminergic receptors (specifically D1, D2, and D3), H1 receptors, GABAA receptors, adrenergic receptors and monoamine transporters.

Adrenergic alpha2C = Adrenergic alpha2C (Homo sapiens, UniProt P18825); test: Adrenergic alpha2C binding
Protocol: as §1, §2

Adrenergic alpha1A = Adrenergic alpha1A (Homo sapiens, UniProt P35348); test: Adrenergic alpha1A binding
Protocol: as §1, §2

Dopamine D1 = Dopamine D1 (Homo sapiens, UniProt P21728); test: Dopamine D1 binding
Protocol: as §1, §2

Adrenergic alpha2A = Adrenergic alpha2A (Homo sapiens, UniProt P08913); test: Adrenergic alpha2A binding
Protocol: as §1, §2

[1] = target: T1, recombinant 5-HT2C receptors (human) (Homo sapiens, UniProt P28335); test: 5-HT2C competition binding assay ([125I]-(±)DOI, SPA)
T1 construct: expressed in transfected cells
Protocol: [^125I]-(±)DOI binding experiments are carried out in SPA 96-well format. Membranes used in this assay are prepared from AV-12 cells stably expressing recombinant 5-HT2C receptors (human). The incubation is initiated by the addition of a mixture of WGA PVT SPA beads (0.5 mg/well, Perkin Elmer (MA, USA), RPNQ0001) and 2.5 μg membranes to assay buffer (50 mM Tris-HCl, 10 mM MgCl2, 0.5 mM EDTA, 10 μM pargyline, 0.1% ascorbic acid, pH7.4) containing 0.2 nM [[^125I]-(±)DOI and varying concentrations of the test compound (10 point concentration response curves). Non-specific binding is determined in the presence of 20 μM 1-(1-naphthyl)piperazine. Samples are incubated for 4 hr. at room temperature (22° C.) and then read in a microplate scintillation counter.
(§3) Curves are evaluated using a 4-parameter logistic nonlinear equation to obtain the concentration of competitor causing 50% inhibition of radioligand binding (IC50). Equilibrium dissociation constants (Ki) are calculated according to the equation Ki=IC50/(1+L/Kd), where L equals the concentration of radioligand used in the experiment and Kd equals the equilibrium dissociation constant of the radioligand for the receptor, determined from standard saturation analysis or homologous competition experiments. […]

Serotonin Transporter = Serotonin Transporter (Homo sapiens, UniProt P31645); test: Serotonin transporter binding
Protocol: as §1, §2

H1 receptors = H1 receptors (Homo sapiens, UniProt P35367); test: H1 receptor binding
Protocol: as §1, §2

Dopamine D3 = Dopamine D3 (Homo sapiens, UniProt P35462); test: Dopamine D3 binding
Protocol: as §1, §2

[2] = target: recombinant human 5-HT2A receptor (Homo sapiens, UniProt P28223); test: 5-HT2A competition binding assay ([3H]-Ketanserin, SPA); parameters: expressed in transfected cells
Protocol: [^3H]-Ketanserin binding experiments are carried out in SPA 96-well format. Membranes used in this assay are prepared from AV-12 cells stably expressing recombinant 5-HT2A receptors (human). The incubation is initiated by the addition of a mixture of WGA YSi SPA beads (1 mg/well, Perkin Elmer (MA, USA), Product No. RPNQ0011) and 2 μg membranes to assay buffer (67 mM Tris, 0.5 mM EDTA; pH 7.6) containing 3.1 nM [^3H]-Ketanserin and varying concentrations of the test compound (10 point concentration response curves). Non-specific binding is determined in the presence of 20 μM 1-(1-naphthyl)piperazine. Samples are incubated for 4 hr. at room temperature (22° C.) and then read in a microplate scintillation counter.
as §3

Norepinephrine Transport = Norepinephrine Transport (Homo sapiens, UniProt P23975); test: Norepinephrine transporter binding
Protocol: as §1, §2

5-HT2B = 5-HT2B (Homo sapiens, UniProt P41595); test: 5-HT2B binding (selectivity data)
Protocol: as §1, §2

native GABAA receptors = test: GABAA antagonism using native receptors in primary neuronal cultures (FLIPR calcium flux); format: cell-based; details: against 10 μM GABA, rat cortical embryonic neurons
Protocol: Activity of compounds on native GABAA receptors is evaluated by monitoring calcium fluxes using a 96 well format FLIPR® system (Fluorometric Imaging Plate Reader (FLIPR®, Molecular Devices). Briefly, cortical embryonic neurons are dissociated from E18 rat embryos and plated at optimum density into black-walled, transparent bottom poly-D-lysine coated 96-well FLIPR® plates. After loading the cells with a calcium sensitive dye (Fluo4-AM, Molecular Devices), the cells are bathed in a solution containing low chloride (chloride replaced by gluconate). Under these conditions activation of GABAA receptors causes an efflux of chloride ions (in the direction of the chemical gradient), which results in membrane depolarization and consequently activation of voltage gated calcium channels (VGCCs). Calcium influx through VGCCs is recorded and analysed offline using the FLIPR® system. For a pharmacological validation of the assay, concentration response curves (CRC) are recorded for the standard agonist (GABA) and standard antagonist (Gabazine). […]
The antagonist effects of compounds are quantified using 10-point dose response curves by comparing the peak fluorescent responses to the agonist GABA in the presence and absence of compound. […] Antagonist effects are calculated as a percent of the assay window. […]

Dopamine D2 = Dopamine D2 (Homo sapiens, UniProt P14416); test: Dopamine D2 binding
Protocol: as §1, §2

Adrenergic alpha1B = Adrenergic alpha1B (Homo sapiens, UniProt P35368); test: Adrenergic alpha1B binding
Protocol: as §1, §2

Chain of Dopamine Transporter (Q01959 whole entry): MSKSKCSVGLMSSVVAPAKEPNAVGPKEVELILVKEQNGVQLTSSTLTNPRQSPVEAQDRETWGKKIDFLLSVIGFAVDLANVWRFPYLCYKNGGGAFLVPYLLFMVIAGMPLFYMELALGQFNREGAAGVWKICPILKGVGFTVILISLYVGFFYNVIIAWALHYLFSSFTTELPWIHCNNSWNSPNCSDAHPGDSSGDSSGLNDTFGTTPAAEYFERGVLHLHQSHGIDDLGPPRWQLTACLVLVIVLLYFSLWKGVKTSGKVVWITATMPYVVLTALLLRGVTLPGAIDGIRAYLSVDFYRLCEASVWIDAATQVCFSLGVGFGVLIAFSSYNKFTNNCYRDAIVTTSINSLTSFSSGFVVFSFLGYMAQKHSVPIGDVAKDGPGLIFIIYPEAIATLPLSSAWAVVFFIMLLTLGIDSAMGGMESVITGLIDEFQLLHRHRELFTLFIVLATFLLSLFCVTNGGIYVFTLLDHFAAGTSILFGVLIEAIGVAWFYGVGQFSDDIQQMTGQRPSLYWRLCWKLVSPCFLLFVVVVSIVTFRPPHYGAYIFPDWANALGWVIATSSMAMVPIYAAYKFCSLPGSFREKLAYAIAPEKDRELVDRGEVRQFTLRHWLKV
Chain of Adrenergic alpha2C (P18825 whole entry): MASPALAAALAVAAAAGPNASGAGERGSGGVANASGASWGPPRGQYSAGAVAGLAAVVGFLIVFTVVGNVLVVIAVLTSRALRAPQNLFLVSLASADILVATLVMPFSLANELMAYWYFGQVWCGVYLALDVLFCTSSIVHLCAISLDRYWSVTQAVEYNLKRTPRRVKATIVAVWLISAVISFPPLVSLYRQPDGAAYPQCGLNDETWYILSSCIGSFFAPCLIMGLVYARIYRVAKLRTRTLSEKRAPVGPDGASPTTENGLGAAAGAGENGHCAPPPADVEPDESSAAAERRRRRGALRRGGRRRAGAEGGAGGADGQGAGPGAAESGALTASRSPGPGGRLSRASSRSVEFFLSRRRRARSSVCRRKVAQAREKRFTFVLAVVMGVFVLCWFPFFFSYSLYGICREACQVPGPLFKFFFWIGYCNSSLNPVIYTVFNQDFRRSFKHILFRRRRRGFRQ
Chain of Adrenergic alpha2A (P08913 whole entry): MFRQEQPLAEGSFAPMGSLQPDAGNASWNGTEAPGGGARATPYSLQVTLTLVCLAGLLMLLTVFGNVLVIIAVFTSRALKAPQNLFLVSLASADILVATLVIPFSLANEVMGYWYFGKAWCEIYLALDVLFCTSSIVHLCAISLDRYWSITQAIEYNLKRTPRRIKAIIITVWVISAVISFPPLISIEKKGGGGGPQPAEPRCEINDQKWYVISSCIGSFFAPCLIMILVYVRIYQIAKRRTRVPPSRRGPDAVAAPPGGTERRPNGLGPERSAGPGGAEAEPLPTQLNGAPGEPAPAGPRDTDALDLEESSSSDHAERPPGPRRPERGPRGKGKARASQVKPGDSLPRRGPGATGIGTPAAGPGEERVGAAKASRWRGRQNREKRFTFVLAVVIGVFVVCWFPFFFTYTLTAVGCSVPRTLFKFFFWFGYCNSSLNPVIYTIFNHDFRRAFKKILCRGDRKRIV
Chain of Dopamine D2 (P14416 whole entry): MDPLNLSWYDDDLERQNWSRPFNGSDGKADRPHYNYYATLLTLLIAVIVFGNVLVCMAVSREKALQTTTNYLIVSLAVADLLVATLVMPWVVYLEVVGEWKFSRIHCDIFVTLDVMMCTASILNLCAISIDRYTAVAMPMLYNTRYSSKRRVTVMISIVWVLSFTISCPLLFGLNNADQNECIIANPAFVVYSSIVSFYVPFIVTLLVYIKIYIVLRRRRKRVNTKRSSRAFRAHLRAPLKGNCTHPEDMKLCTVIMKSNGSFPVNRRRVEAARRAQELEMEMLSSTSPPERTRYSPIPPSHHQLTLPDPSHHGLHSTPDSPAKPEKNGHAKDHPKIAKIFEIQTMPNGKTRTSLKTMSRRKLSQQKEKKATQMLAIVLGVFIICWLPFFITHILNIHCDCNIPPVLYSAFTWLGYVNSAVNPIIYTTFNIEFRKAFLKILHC
Chain of recombinant human 5-HT2A receptor (P28223 whole entry): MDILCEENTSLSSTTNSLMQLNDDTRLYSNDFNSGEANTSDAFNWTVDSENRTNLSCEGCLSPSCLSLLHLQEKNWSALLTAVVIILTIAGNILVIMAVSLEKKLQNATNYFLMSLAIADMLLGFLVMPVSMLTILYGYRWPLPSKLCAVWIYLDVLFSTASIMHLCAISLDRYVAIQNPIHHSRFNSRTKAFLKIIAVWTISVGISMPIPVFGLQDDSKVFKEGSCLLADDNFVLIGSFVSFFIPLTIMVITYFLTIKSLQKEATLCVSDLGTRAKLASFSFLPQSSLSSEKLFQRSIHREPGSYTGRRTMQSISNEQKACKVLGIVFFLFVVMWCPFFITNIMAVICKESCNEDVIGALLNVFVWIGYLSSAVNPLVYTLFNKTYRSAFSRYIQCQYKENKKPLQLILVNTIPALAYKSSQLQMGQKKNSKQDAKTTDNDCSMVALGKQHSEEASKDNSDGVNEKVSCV
Chain of Dopamine D1 (P21728 whole entry): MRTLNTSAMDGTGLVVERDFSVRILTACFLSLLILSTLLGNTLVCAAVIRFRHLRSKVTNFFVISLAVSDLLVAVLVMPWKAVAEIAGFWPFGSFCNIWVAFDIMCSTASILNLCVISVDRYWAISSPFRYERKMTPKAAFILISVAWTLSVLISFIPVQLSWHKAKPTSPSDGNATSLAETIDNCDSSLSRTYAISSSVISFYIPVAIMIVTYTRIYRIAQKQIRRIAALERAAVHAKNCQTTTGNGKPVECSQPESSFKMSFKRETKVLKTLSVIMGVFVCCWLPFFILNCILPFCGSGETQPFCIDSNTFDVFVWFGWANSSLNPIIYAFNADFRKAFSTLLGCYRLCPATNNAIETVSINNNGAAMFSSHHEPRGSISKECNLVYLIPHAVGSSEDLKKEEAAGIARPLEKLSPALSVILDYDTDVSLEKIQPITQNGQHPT
Chain of Norepinephrine Transport (P23975 whole entry): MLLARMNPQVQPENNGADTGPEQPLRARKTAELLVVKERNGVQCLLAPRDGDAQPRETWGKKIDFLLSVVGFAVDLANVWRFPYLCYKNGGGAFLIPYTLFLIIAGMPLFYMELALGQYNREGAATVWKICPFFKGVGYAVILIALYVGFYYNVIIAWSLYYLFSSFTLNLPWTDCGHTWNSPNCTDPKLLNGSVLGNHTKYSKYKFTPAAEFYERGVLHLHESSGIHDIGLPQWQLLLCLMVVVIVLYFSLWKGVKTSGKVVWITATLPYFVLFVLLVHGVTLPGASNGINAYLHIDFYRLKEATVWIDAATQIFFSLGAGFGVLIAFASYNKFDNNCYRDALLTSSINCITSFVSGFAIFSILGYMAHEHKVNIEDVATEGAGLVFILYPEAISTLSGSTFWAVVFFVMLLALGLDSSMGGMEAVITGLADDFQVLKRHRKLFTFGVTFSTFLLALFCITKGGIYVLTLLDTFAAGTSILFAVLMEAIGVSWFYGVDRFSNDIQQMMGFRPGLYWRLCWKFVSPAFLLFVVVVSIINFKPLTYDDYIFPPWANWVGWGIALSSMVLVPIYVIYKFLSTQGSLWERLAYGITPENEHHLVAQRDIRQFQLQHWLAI
Chain of Adrenergic alpha1B (P35368 whole entry): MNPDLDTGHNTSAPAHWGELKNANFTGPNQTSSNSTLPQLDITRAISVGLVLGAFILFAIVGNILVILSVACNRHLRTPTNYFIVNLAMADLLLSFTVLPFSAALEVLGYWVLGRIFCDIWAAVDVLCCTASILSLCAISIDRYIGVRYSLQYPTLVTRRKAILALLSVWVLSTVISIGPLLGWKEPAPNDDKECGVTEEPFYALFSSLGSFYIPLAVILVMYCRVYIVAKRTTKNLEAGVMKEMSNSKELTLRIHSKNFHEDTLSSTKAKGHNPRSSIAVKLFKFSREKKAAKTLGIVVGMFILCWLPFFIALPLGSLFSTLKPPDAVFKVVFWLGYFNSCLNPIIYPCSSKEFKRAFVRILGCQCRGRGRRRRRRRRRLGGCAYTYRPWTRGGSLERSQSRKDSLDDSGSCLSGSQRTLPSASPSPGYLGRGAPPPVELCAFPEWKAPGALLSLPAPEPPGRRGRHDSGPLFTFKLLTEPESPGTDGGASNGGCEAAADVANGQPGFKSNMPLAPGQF
Chain of Serotonin Transporter (P31645 whole entry): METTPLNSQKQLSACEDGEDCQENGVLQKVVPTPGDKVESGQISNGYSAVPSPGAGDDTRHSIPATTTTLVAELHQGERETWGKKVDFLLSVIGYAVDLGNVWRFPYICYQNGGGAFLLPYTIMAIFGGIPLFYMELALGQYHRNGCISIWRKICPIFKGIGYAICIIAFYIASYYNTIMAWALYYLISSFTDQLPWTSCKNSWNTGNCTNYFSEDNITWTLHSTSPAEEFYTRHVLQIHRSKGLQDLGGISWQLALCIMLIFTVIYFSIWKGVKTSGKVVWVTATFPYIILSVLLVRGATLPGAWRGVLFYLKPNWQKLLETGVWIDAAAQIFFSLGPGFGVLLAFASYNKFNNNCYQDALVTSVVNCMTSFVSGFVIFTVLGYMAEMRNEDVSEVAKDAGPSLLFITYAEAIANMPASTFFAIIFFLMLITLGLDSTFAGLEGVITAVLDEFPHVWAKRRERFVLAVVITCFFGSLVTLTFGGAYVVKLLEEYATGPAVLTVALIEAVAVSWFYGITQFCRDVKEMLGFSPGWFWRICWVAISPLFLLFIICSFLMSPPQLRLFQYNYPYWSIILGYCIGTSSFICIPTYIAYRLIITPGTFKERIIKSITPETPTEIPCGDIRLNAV

Compound: Cc1ccc2c(c1)Oc1sc(SC(C)C)cc1C(N1CCN(CC(C)(C)C(=O)O)CC1)=N2 [Example 2, 3-[4-(2-Isopropylsulfanyl-8-methyl-thieno[2,3-b][1,5]benzoxazepin-4-yl)piperazin-1-yl]-2,2-dimethyl-propanoic acid dihydrochloric acid salt]
- Ki (Dopamine Transporter): > 875 nM
- Ki (Adrenergic alpha2C): > 6750 nM
- Ki (Adrenergic alpha1A): > 13400 nM
- Ki (Dopamine D1): 3760 nM
- Ki (Adrenergic alpha2A): > 8820 nM
- Ki [1]: 772 nM
- Ki (Serotonin Transporter): > 651 nM
- Ki (H1 receptors): 893 nM
- Ki (Dopamine D3): > 5880 nM
- Ki [2]: 6.2 nM
- Ki (Norepinephrine Transport): > 691 nM
- Ki (5-HT2B): 767 nM
- IC50 (native GABAA receptors): 41000 nM
- Ki (Dopamine D2): > 3670 nM
- Ki (Adrenergic alpha1B): 10400 nM
